Results on 47 molecules are retold here after ChEMBL document CHEMBL5442379, “ASAP - SARS-CoV-2 nsp3 macrodomain single point” (2024).

The assay deals with Replicase polyprotein 1ab (Severe acute respiratory syndrome coronavirus 2) (UniProt P0DTD1).

Description: Functional biochemical assay to identify treatments for viral infectious disease that targets SARS-COV-2 nsp3 macrodomain, whereby the mechanism of action displaces an ADP-Ribose modified peptide from the binding site. Utilizing a time-resolved fluorescence method to measure binding by reading the emitted fluorescence intensity in two wavelengths.

For orientation: inhibition means the relative decrease from the control value, in per cent. `CC(C)[C@@H](Nc1ncnc2[nH]ccc12)c1nncn1C`: the inhibition was 4.59% (Concentration 49.75 uM, Number of replicates 2.0, Standard deviation 0.565 %) and 10.8% (Concentration 99.5 uM, Number of replicates 2.0, Standard deviation 7.858 %).
As to `COc1nc2cc(NC(=O)c3cc(N4CCNC4=O)ccc3F)ccc2[nH]1`, the inhibition (Concentration 50.0 uM, Number of replicates 2.0, Standard deviation 4.804 %) is -4.21%.
Take `CCN(Cc1nnc(C)o1)C(=O)c1cnn2ccc(C3CCN(C(=O)c4ccccc4)CC3)cc12`: the inhibition by setting is: (Concentration 49.75 uM, Number of replicates 2.0, Standard deviation 14.085 %) 10%; (Concentration 99.5 uM, Number of replicates 2.0, Standard deviation 1.269 %) -5.31%.
In the case of `O=C(CCN(Cc1cccc(Cl)c1)C(=O)C1(F)CCCCC1)N1CCNCC1`, the inhibition runs as follows: (Concentration 49.75 uM, Number of replicates 2.0, Standard deviation 2.579 %) -3.58%; (Concentration 99.5 uM, Number of replicates 2.0, Standard deviation 1.426 %) 0.185%.
As for `Cc1nc(C(=O)N2CCC(c3ccn4ncc(C(=O)N5CCCCC5)c4c3)CC2)c(C)[nH]1`, the inhibition stood at 16.8% (Concentration 49.75 uM, Number of replicates 2.0, Standard deviation 0.064 %) and 27.5% (Concentration 99.5 uM, Number of replicates 2.0, Standard deviation 4.92 %).
Turning to `Cc1nc(NC(=O)c2nccc3ccncc23)c2cc[nH]c2n1`, the inhibition (Concentration 50.0 uM, Number of replicates 2.0, Standard deviation 2.951 %) is -5.83% and the inhibition (Concentration 100.0 uM, Number of replicates 2.0, Standard deviation 4.025 %) is 2.61%.
`CC(C)NC(=O)[C@@H]1CCCN(c2ncnc3[nH]ccc23)C1`: under “Concentration 50.0 uM, Number of replicates 2.0, Standard deviation 0.005 %”, the inhibition was found to be 1.78%.
As to `O=C(Cn1c(=O)[nH]c2ccccc21)Nc1cnc2[nH]ncc2c1`, the inhibition (Concentration 50.0 uM, Number of replicates 2.0, Standard deviation 2.142 %) is 1.78%.
Consider `c1ccc(-c2cc(CNc3ncnc4[nH]ccc34)on2)cc1`, for which the inhibition is, setting by setting: (Concentration 50.0 uM, Number of replicates 2.0, Standard deviation 8.772 %) 7.14%; (Concentration 100.0 uM, Number of replicates 2.0, Standard deviation 1.845 %) -3.46%.
Turning to `CC(C)n1ncnc1CNc1cc2c(=O)nc[nH]c2cn1`, the inhibition (Concentration 50.0 uM, Number of replicates 2.0, Standard deviation 0.347 %) is -1.49%.
Regarding `NS(=O)(=O)N1CCCN(c2ncnc3[nH]c(I)cc23)CC1`, where the note is “Concentration 50.0 uM, Number of replicates 2.0, Standard deviation 1.583 %”, the inhibition is 2.29%.
On to `c1ccc2sc(CCNc3ncnc4nc[nH]c34)nc2c1`, for which, where the note is “Concentration 50.0 uM, Number of replicates 2.0, Standard deviation 2.493 %”, the inhibition is -4.21%.
Consider `CSc1cccc(NC(=O)c2ncnc3[nH]ccc23)c1`, for which the inhibition (Concentration 50.0 uM, Number of replicates 2.0, Standard deviation 4.41 %) is -4.67%.
Turning to `Cc1cccc(Cl)c1-n1sc(=O)n(CC2CC2)c1=O`, the inhibition (Concentration 50.0 uM, Number of replicates 2.0, Standard deviation 1.233 %) is 51.9%.
Take `Cc1cc(N)ncc1C(=O)N1CCC(c2ccn3ncc(C(=O)N4CCCCC4)c3c2)CC1`: the inhibition by setting is: (Concentration 49.75 uM, Number of replicates 2.0, Standard deviation 0.411 %) 19.5%; (Concentration 99.5 uM, Number of replicates 2.0, Standard deviation 3.667 %) 32.6%.
With `CN(c1ncnc2[nH]ncc12)[C@@H](CCO)c1ccccc1`, the inhibition reads like this: (Concentration 49.75 uM, Number of replicates 2.0, Standard deviation 10.225 %) 8.86%; (Concentration 99.5 uM, Number of replicates 2.0, Standard deviation 3.705 %) 5.14%.
Consider `O=C(NCc1ncccn1)c1cnn2ccc(C3CCN(C(=O)c4ccccc4)CC3)cc12`, for which the inhibition runs as follows: (Concentration 49.75 uM, Number of replicates 2.0, Standard deviation 2.653 %) -0.074%; (Concentration 99.5 uM, Number of replicates 2.0, Standard deviation 0.514 %) -6.66%.
Take `O=C(CCN(Cc1cccc(Cl)c1)C(=O)c1ncccc1Cl)N1CCNCC1`: the inhibition by setting is: (Concentration 49.75 uM, Number of replicates 2.0, Standard deviation 1.117 %) 2.75%; (Concentration 99.5 uM, Number of replicates 2.0, Standard deviation 8.572 %) 7.52%.
Regarding `Cc1c(-c2cnc3nc[nH]c(=O)c3c2)ccc2[nH]ncc12`, the inhibition (Concentration 49.75 uM, Number of replicates 2.0, Standard deviation 0.542 %) was -3.12% and the inhibition (Concentration 99.5 uM, Number of replicates 2.0, Standard deviation 2.71 %) is -4.36%.
With `CCc1nc(CN(C)c2nc(C)nc3[nH]ccc23)cs1`, the inhibition (Concentration 50.0 uM, Number of replicates 2.0, Standard deviation 3.767 %) was -6.13%.
For the molecule `Cc1cocc1C(=O)N(CCC(=O)N1CCNCC1)Cc1cccc(Cl)c1`, the inhibition is, setting by setting: (Concentration 49.75 uM, Number of replicates 2.0, Standard deviation 0.438 %) 1.4%; (Concentration 99.5 uM, Number of replicates 2.0, Standard deviation 0.13 %) 0.51%.
As to `CC(C)c1nc([C@@H](C)Nc2ncnc3nc[nH]c23)cs1`, the inhibition (Concentration 49.75 uM, Number of replicates 2.0, Standard deviation 2.607 %) is 2.65% and the inhibition (Concentration 99.5 uM, Number of replicates 2.0, Standard deviation 0.232 %) worked out at 3.07%.
Consider `Cc1ncc(NCc2cnc3c(c2)NC(=O)CO3)cc1Cl`, for which the inhibition (Concentration 50.0 uM, Number of replicates 2.0, Standard deviation 2.461 %) is -0.368%.
Take `O=C(CCN(Cc1cccc(Cl)c1)C(=O)c1c[nH]c(=O)cn1)N1CCNCC1`: the inhibition was -2.71% (Concentration 49.75 uM, Number of replicates 2.0, Standard deviation 1.237 %) and 0.98% (Concentration 99.5 uM, Number of replicates 2.0, Standard deviation 0.012 %).
For the molecule `O=C(CCN(Cc1cccc(Cl)c1)C(=O)C1CCC(O)CC1)N1CCNCC1` (stereo not drawn), the inhibition (Concentration 49.75 uM, Number of replicates 2.0, Standard deviation 4.563 %) is -4.32% and the inhibition (Concentration 99.5 uM, Number of replicates 2.0, Standard deviation 1.877 %) is 0.465%.
`Cc1cc(NCc2ncccc2O)ncn1`: the inhibition (Concentration 50.0 uM, Number of replicates 2.0, Standard deviation 4.706 %) was -3.33%.
For `NC(=O)[C@@H]1CCN(C(=O)c2cnc3[nH]c(=O)[nH]c(=O)c3c2)C1`, the inhibition (Concentration 50.0 uM, Number of replicates 2.0, Standard deviation 2.086 %) is -6.32%.
With `O=C(c1cnc[nH]1)N1CCC(c2ccn3ncc(C(=O)N4CCCCC4)c3c2)CC1`, the inhibition was 20.3% (Concentration 49.75 uM, Number of replicates 2.0, Standard deviation 1.741 %) and 35.3% (Concentration 99.5 uM, Number of replicates 2.0, Standard deviation 2.598 %).
For `O=C(c1cc(O)ncn1)N1CCC(c2ccn3ncc(C(=O)N4CCCCC4)c3c2)CC1`, the inhibition runs as follows: (Concentration 49.75 uM, Number of replicates 2.0, Standard deviation 0.931 %) 19.1%; (Concentration 99.5 uM, Number of replicates 2.0, Standard deviation 1.95 %) 30.9%.
With `O=C(c1cccnc1O)N1CCC(c2ccn3ncc(C(=O)N4CCCCC4)c3c2)CC1`, the inhibition is -7.04% (Concentration 49.75 uM, Number of replicates 2.0, Standard deviation 3.415 %) and -3.94% (Concentration 99.5 uM, Number of replicates 2.0, Standard deviation 3.017 %).
As to `c1ccc(-c2n[nH]cc2CNc2cnc3[nH]ncc3c2)cc1`, under “Concentration 50.0 uM, Number of replicates 2.0, Standard deviation 1.159 %”, the inhibition was -2.04%.
Turning to `Brc1ccc(-n2nnnc2Sc2ncnc3[nH]ccc23)cc1`, where the note is “Concentration 50.0 uM, Number of replicates 2.0, Standard deviation 10.96 %”, the inhibition stood at 12.7%.
Turning to `O=C(NCc1cn[nH]c1)c1cnn2ccc(C3CCN(C(=O)c4ccccc4)CC3)cc12`, the inhibition was -2.37% (Concentration 49.75 uM, Number of replicates 2.0, Standard deviation 0.103 %) and -4.5% (Concentration 99.5 uM, Number of replicates 2.0, Standard deviation 3.225 %).
Consider `CC(=O)Nc1ccc(S(=O)(=O)NNc2ncnc3sccc23)cc1`, for which the inhibition (Concentration 50.0 uM, Number of replicates 2.0, Standard deviation 2.273 %) worked out at 5.36%.
As for `Cc1cc(C(F)(F)F)nn1CCNc1ncnc2[nH]ccc12`, the inhibition is, setting by setting: (Concentration 50.0 uM, Number of replicates 2.0, Standard deviation 3.563 %) -3.04%; (Concentration 50.0 uM, Number of replicates 2.0, Standard deviation 6.31 %) 4.6%; (Concentration 100.0 uM, Number of replicates 2.0, Standard deviation 1.334 %) -2.21%.
With `COc1cc(OC)cc(C(=O)N(CCC(=O)N2CCNCC2)Cc2cccc(Cl)c2)c1`, the inhibition (Concentration 50.0 uM, Number of replicates 2.0, Standard deviation 1.533 %) was -4.53%.
Turning to `Cn1ncc2c(NCc3ncccc3O)ncnc21`, the inhibition (Concentration 50.0 uM, Number of replicates 2.0, Standard deviation 16.275 %) amounted to 3.89%.
As for `O=C(Nc1ccccc1)Nc1ccc(C(=O)N2CCc3nc[nH]c3C2)cc1`, the inhibition runs as follows: (Concentration 49.75 uM, Number of replicates 2.0, Standard deviation 2.91 %) -3.02%; (Concentration 99.5 uM, Number of replicates 2.0, Standard deviation 5.124 %) -2.38%.
Regarding `O=C(NCc1nc(-c2ccco2)n[nH]1)c1cc2nccn2c(=O)[nH]1`, the inhibition (Concentration 50.0 uM, Number of replicates 2.0, Standard deviation 0.515 %) is -5.42%.
`Cc1nc(C(=O)N2CCC(c3ccn4ncc(C(=O)N5CCCCC5)c4c3)CC2)c(=O)[nH]c1C`: the inhibition by setting is: (Concentration 49.75 uM, Number of replicates 2.0, Standard deviation 2.437 %) 26.4%; (Concentration 99.5 uM, Number of replicates 2.0, Standard deviation 0.005 %) 44.2%.
Take `c1ccc2sc([C@@H]3CCCN(c4ncnc5[nH]ccc45)C3)nc2c1`: under “Concentration 50.0 uM, Number of replicates 2.0, Standard deviation 1.364 %”, the inhibition is -0.779%.
In the case of `COCc1cc(CNc2nc3[nH]cnc3c(=O)[nH]2)on1`, the inhibition (Concentration 50.0 uM, Number of replicates 2.0, Standard deviation 1.926 %) was determined as 2.98%.
`O=C(NCc1nc2cccnc2[nH]1)c1cnc2nc[nH]c(=O)c2c1`: the inhibition was -1.99% (Concentration 50.0 uM, Number of replicates 2.0, Standard deviation 1.79 %) and 7.03% (Concentration 100.0 uM, Number of replicates 2.0, Standard deviation 3.352 %).
On to `FC(F)(F)c1ccccc1[C@@H]1CN(c2ncnc3[nH]ccc23)CCO1`, for which the inhibition (Concentration 50.0 uM, Number of replicates 2.0, Standard deviation 3.904 %) is -5.31%.
As for `CO[C@@H](CNc1ncnc2[nH]ccc12)c1cccc(Cl)c1`, the inhibition reads like this: (Concentration 50.0 uM, Number of replicates 2.0, Standard deviation 2.381 %) 4.1%; (Concentration 100.0 uM, Number of replicates 2.0, Standard deviation 2.011 %) 14.2%.
As to `CC(C)(CCNc1ncnc2[nH]ccc12)S(C)(=O)=O`, the inhibition (Concentration 50.0 uM, Number of replicates 2.0, Standard deviation 3.874 %) amounted to 0.75%.
With `Oc1cc(CNc2ncnc3[nH]cnc23)ccn1`, the inhibition by setting is: (Concentration 50.0 uM, Number of replicates 2.0, Standard deviation 4.588 %) -0.821%; (Concentration 100.0 uM, Number of replicates 2.0, Standard deviation 5.781 %) -3.73%.
